Experimental data published in patent US12370232B2, “Use of polyphenol containing sugar cane extracts for preventing, improving or treating a skin condition” (priority 2017, dated 2025).

Tests used:
tyrosinase = assay: Tyrosinase inhibition assay; assay type: biochemical
Experimental: A tyrosinase inhibition assay was performed to determine the tyrosinase inhibition potential of an extract derived from sugar cane of the present disclosure. […]
To measure tyrosinase inhibition potential of an extract derived from sugar cane of the present disclosure, tyrosinase was added to a mixture of a test sample solution containing an extract derived from sugar cane, L-DOPA, and phosphate buffer (pH 6.8), which was then incubated at 37° C. for 5 hours. Tyrosinase activity was determined through the amount of dopachrome production in the mixture, which was measured by optical density at 450 nm. Dopachrome is a cyclization product of L-DOPA, an intermediate in the biosynthesis of melanin.

MMP-1 = MMP-1 inhibition assay in UV irradiated human skin cells (zymography); assay type: cell-based
Experimental: The UV protection function of an extract derived from sugar cane of the present disclosure on skin using human skin cells was investigated. MMP-1, one of the key matrix metalloproteinases (MMPs) that is viewed as an indicator for tissue integrity breakdown and wrinkle formation, was used as a biomarker for skin damage. MMP-1 inhibitors have been related to skin aging prevention and therapy. An MMP-1 inhibition assay was performed to determine the MMP-1 inhibition potential of an extract derived from sugar cane of the present disclosure. […] In order to determine the UV protection ability of a test sample of an extract derived from sugar cane of the present disclosure, human skin cells were treated with (and without) the test sample followed by UV irradiation. The treated cells were then disrupted by subjection to several freeze-thaw cycles, and the proteins were obtained by centrifugation. Using the collected lysate, zymography was used to determine the enzymatic activity of secreted MMP-1. In the zymography, the proteins were separated by electrophoresis under denaturing (sodium dodecyl sulfate, SDS), nonreducing conditions. The separation occurred in a polyacrylamide gel containing a collagen substrate that was co-polymerized with the acrylamide. […] After electrophoresis, the gel was washed and subsequently incubated in an appropriate activation buffer. During this incubation, the concentrated, renatured MMPs in the gel digested the collagen substrate. After incubation, the gel was stained with Coomassie® Blue, and the MMPs were detected as clear bands against a blue background of undegraded substrate. The clear bands in the gel was quantified by densitometry. Avobenzone, a known MMP-1 inhibitor, was used as an assay control.

SMILES: O=c1cc(CO)occ1O [Kojic Acid, Kojic acid]
- Concentration inducing the maximum inhibition (tyrosinase): 1000 µM
- Inhibition (%) Result (tyrosinase; Conc. 3.91 uM): −11.66%
- Inhibition (%) Result (tyrosinase; Conc. 7.81 uM): −9.33%
- Inhibition (%) Result (tyrosinase; Conc. 15.63 uM): −4.66%
- Inhibition (%) Result (tyrosinase; Conc. 31.25 uM): 1.23%
- Inhibition (%) Result (tyrosinase; Conc. 62.50 uM): 12.35%
- Inhibition (%) Result (tyrosinase; Conc. 125.00 uM): 30.45%
- Inhibition (%) Result (tyrosinase; Conc. 250.00 uM): 52.40%
- Inhibition (%) Result (tyrosinase; Conc. 500.00 uM): 75.45%
- Inhibition (%) Result (tyrosinase; Conc. 1000.00 uM): 90.12%
- Maximum inhibition achieved (tyrosinase; at 1000 μM): 90.12%

SMILES: COc1ccc(C(=O)CC(=O)c2ccc(C(C)(C)C)cc2)cc1 [avobenzone, Avobenzone]
- Concentration inducing the maximum inhibition (MMP-1): 10%
- MMP-1 inhibition (%) Average (MMP-1; Conc 0.31 %): 5.0%
- MMP-1 inhibition (%) Replicate 2 (MMP-1; Conc 0.31 %): 5.0%
- MMP-1 inhibition (%) Average (MMP-1; Conc 0.63 %): 44.1%
- MMP-1 inhibition (%) Replicate 1 (MMP-1; Conc 0.63 %): 22.51%
- MMP-1 inhibition (%) Replicate 2 (MMP-1; Conc 0.63 %): 65.72%
- MMP-1 inhibition (%) Average (MMP-1; Conc 1.25 %): 48.5%
- MMP-1 inhibition (%) Replicate 1 (MMP-1; Conc 1.25 %): 56.96%
- MMP-1 inhibition (%) Replicate 2 (MMP-1; Conc 1.25 %): 39.99%
- MMP-1 inhibition (%) Average (MMP-1; Conc 2.50 %): 79.8%
- MMP-1 inhibition (%) Replicate 1 (MMP-1; Conc 2.50 %): 77.44%
- MMP-1 inhibition (%) Replicate 2 (MMP-1; Conc 2.50 %): 82.22%
- MMP-1 inhibition (%) Average (MMP-1; Conc 5.00 %): 90.7%
- MMP-1 inhibition (%) Replicate 1 (MMP-1; Conc 5.00 %): 85.34%
- MMP-1 inhibition (%) Replicate 2 (MMP-1; Conc 5.00 %): 96.03%
- MMP-1 inhibition (%) Average (MMP-1; Conc 10.00 %): 97.5%
- MMP-1 inhibition (%) Replicate 1 (MMP-1; Conc 10.00 %): 95.44%
- MMP-1 inhibition (%) Replicate 2 (MMP-1; Conc 10.00 %): 99.52%
- Maximum inhibition achieved (MMP-1; at 10%): 97.50%
- EC50 (MMP-1; effective concentration at 50% of maximal inhibition): 1.22%
